Laboratory results: US12220550B2, “Transdermal delivery device, methods of using and making the same” (BUDDHIST TZU CHI MEDICAL FOUNDATION, priority 2021, dated 2025)

Experiment: In vitro drug release from drug-loaded MNs
Format: physicochemical
Conditions: from IPN hydrogel MNs, PBS pH 7.4, 37° C., 100 rpm, first 24 hours
Description: The drug-loaded MNs were soaked in 10 mL of PBS solution (pH 7.4) and put in a shaking incubator at 37° C. and 100 rpm to simulate the real drug release environment. About 2.5 mL of the release medium was withdrawn and replenished with an equivalent volume of PBS every half hour for the first 4 hours. Similarly, the released medium was collected at the 5th, 6th, 8th, 12th, and 24th hour followed by every 24 h for 7 days. Then, the cumulative drug released was determined by measuring the UV-Vis absorbance of DOX and LPS at 485 nm and 256 nm, respectively, and then calculated using the standard calibration curve of the free drugs, as shown in FIGS. 14A and B.
Drug release behavior of IPN hydrogel was examined. First, DOX and/or LPS were loaded into the hydrogel by simple mixing with IPN hydrogel pre-gel solution (0.5 mg DOX/MNs and 0.2 mg LPS/MNs) followed by casting MNs and sequential photo-ionic crosslinking to obtained drug loaded solid MNs arrays (DOX loaded MN, LPS loaded MN and LPS/DOX loaded MN). Then, drug loaded MNs were immersed in 10 mL PBS solution and kept in an orbital shaker incubator with a rotation of 100 rpm at 37° C.

Molecule	cumulative drug release
COc1cccc2c1C(=O)c1c(O)c3c(c(O)c1C2=O)C[C@@](O)(C(=O)CO)C[C@@H]3O[C@H]1C[C@H](N)[C@H](O)[C@H](C)O1 [DOX, doxorubicin]	~66.1±7.4%
lipopolysaccharide [LPS]	~59.4±5.5%
